Test results published in US6069177A, “3-Hydroxy-propanamine derived neuronal reuptake inhibitors” (priority 1997, dated 2000).
“Also recorded” adds a separate entry of the source. Like-named read-outs stand apart in the source and are kept apart here.

What was measured:
[1] = biological target: T1, 5-HT reuptake into rat brain synaptosomes (Rattus norvegicus, UniProt P31652); test: 5-HT reuptake inhibition in rat brain synaptosomes; assay type: biochemical, rat (male Sprague-Dawley), cortical tissue; details: Ki (5-HT)/Ki (compound or drug); Prozac to Serzone derived from literature Ki
T1 construct: A crude synaptosomal (P2) fraction was prepared; tissue Harlan Sprague-Dawley (animals); host or cells: rat cerebral cortex, crude synaptosomal (P2) fraction
Experimental: (§1) Briefly, the tissue was homogenized in 20 volumes of ice-cold 0.32 M sucrose containing 11 mM glucose, pH 7.4 in a glass Potter-Elvehjemhomogenizer with teflon pestle (8 strokes, 900 rpm). The homogenate was centrifuged at 1,000 g for 10 minutes. The resulting supernatant was then centrifuged at 20,000 g for 20 minutes and the supernatent was discarded.
(§2) Briefly, synaptosomal protein (1.0-2.5 mg) was suspended in a total volume of 1 mL containing oxygenated incubation buffer, 10 μM pargyline to inhibit monoamine oxidase activity, 0.2 mg/mL sodium ascorbate and varying concentrations of other compounds or drugs as indicated in the text. […] After a 5 minute preincubation at 37° C. in a shaking water bath (80 oscillations/minute), the uptake was initiated by the addition of […]. The reaction was stopped after 5 minute by adding 4 mL ice-cold 0.9% (w/v) sodium chloride and rapidly filtered through a Whatman GF/B glass fiber filter in a 48-place Brandel cell harvester. The filter was then washed with an additional 8 mL of wash buffer, placed in a scintillation vial containing 5 mL of Redi-Safe (Beckman Instruments, Fullerton, Calif.) and counted. Specific uptake was calculated as the difference between the total uptake (zero unlabelled ligand) and nonspecific uptake (excess unlabelled ligand).

[2] = biological target: T2, NE reuptake into rat brain synaptosomes (Rattus norvegicus, UniProt Q63380); test: biochemical; design: species or system rat (male Sprague-Dawley), hippocampal tissue
T2 construct: A crude synaptosomal (P2) fraction was prepared; tissue Harlan Sprague-Dawley (animals); host or cells: rat hippocampus, crude synaptosomal (P2) fraction

[3] = biological target: T3, DA reuptake into rat brain synaptosomes (Rattus norvegicus, UniProt P23977); test: DA reuptake inhibition in rat brain synaptosomes; assay type: biochemical, rat (male Sprague-Dawley), striatal tissue; details: for DA (Rat) Reuptake Inhibition Potency: Ki (DA)/Ki (compound or drug), Prozac to Serzone derived from literature Ki
T3 construct: A crude synaptosomal (P2) fraction was prepared; tissue Harlan Sprague-Dawley (animals); host or cells: rat striatum, crude synaptosomal (P2) fraction

[4] = system: 5-HT, NE and DA reuptake into rat brain synaptosomes; assay type: biochemical, rat (male Sprague-Dawley); details: for block uptake of all three neurotransmitters (5-HT, NE, and DA), Ki in words: rat brain synaptosomes
Experimental: as §1, §2

[5] = biological target: T4, human serotonin transporter (hSERT) (Homo sapiens, UniProt P31645); assay type: binding
T4 construct: expressed in transfected cells; membranes of cells expressing the cloned hSERT
Experimental: (§3) These transporters are responsible for neuronal reuptake of the neurotransmitters.
(§4) Cells were incubated in 10% CO2, 90% air at 37° C. and 100% humidity. The selecting antibiotic geneticin sulfate (250 μg/ml) was used during the cell culture for the hNET only.
(§5) For the preparation of homogenates, medium was removed by aspiration. […] Cells were then scraped from the surface with a rubber spatula into a centrifuge tube and collected by centrifugation at 1000×g for 5 min at 4° C. Supernatants were decanted and the pellet was resuspended in the appropriate binding buffer and homogenized with the use of a Polytron for 10 sec at setting 6. This solution was centrifuged at about 36,000×g for 10 minutes (4° C.). The pellet was suspended in the same volume of buffer and the centrifugation was repeated. The supernatants were decanted and the final pellet was suspended in the appropriate buffer and stored at -80° C. until use.
(§6) For the membranal preparation, cells were homogenized in 50 mM Tris-HCl with 120 mM NaCl and 5 mM KC1 (pH 7.4). […] The reaction mixture was incubated at 22° C. for 30 min. The assay was terminated by rapid filtration of the contents of each tube through a GF/B filter strip, which had been pretreated with 0.2% polyethylenimine, with the use of a 48-well Brandel cell harvester. The filter strips were then rinsed five times with ice-cold 0.9% NaCl. Next, individual filters were cut from the strip and placed in a scintillation vial containing 6.5 mL of Redi-Safe (Beckman Instruments, Fullerton, Calif.). Radioactivity was measured with a Beckman liquid scintillation counter (LS 5000TD).
(§7) The program was modified by the inventors to calculate the Hill Coefficient (nH). […] One-component models and two-component models were compared using the root mean square error of each fit and the F test.

[6] = biological target: human norepinephrine transporter (hNET) (Homo sapiens, UniProt P23975); assay type: binding
[7] = biological target: T5, human dopamine transporter (hDAT) (Homo sapiens, UniProt Q01959); test: [3H]WIN35428 binding to cloned human DAT; details: Kd (DA)/Kd (compound or drug) in the hDAT binding assay
T5 construct: expressed in transfected cells; membranes of cells expressing the cloned hDAT
Experimental: as §3, §4, §5
(§8) For the membranal preparation, cells were homogenized in the 50 mM Tris-HCl with 120 mM NaCl (pH 7.4). […] The reaction mixture was incubated at 4° C. for 2 hr. The remaining methods were exactly as described for hSERT above.
as §7

hSERT, hNET, and hDAT = test: Simultaneous binding to cloned human transporters hSERT, hNET and hDAT; details: for Simultaneous Transporter Binding Potency: Table 4, each of the potency values greater than 7.0; for Simultaneous Transporter Binding Potency (Human): Table 5, comparison of rat and human data; for simultaneous transporter binding potency, in words: human, each value ≥7.0
Experimental: as §3, §4, §5, §6
For the membranal preparation, cells were homogenized in 50 mM Tris-HCl with 300 mM NaCl and 5 mM KCl (pH 7.4). […] The reaction mixture was incubated at 22° C. for 60 min. The remaining methods were exactly as described for hSERT above.
as §8, §7

[8] = biological target: T2, NE reuptake into rat brain synaptosomes; details: cited from earlier work
[9] = Ki (NE)/Ki (compound or drug), Prozac to Serzone derived from literature Ki
[10] = Table 5, comparison of rat and human data
[11] = Kd (NE)/Kd (compound or drug) in the hNET binding assay
[12] = Kd (5-HT)/Kd (compound or drug) in the hSERT binding assay

T2 sequence (Q63380 1-617): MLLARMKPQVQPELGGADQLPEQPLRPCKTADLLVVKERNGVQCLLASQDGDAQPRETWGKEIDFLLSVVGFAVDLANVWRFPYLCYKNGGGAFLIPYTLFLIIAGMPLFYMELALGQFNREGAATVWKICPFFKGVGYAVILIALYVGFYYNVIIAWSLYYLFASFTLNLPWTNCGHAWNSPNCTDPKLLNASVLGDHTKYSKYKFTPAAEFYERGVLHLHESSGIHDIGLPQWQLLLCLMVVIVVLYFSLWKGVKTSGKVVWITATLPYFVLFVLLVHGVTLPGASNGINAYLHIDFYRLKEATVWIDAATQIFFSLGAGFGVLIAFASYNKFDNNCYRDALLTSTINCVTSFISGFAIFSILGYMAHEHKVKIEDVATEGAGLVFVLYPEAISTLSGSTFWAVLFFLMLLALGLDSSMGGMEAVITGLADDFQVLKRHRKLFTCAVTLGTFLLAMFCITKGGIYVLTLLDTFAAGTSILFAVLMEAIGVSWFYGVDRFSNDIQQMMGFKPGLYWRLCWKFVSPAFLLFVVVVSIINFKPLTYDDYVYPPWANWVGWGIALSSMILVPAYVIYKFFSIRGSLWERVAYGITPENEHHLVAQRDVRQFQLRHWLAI
T5 sequence (Q01959 whole entry): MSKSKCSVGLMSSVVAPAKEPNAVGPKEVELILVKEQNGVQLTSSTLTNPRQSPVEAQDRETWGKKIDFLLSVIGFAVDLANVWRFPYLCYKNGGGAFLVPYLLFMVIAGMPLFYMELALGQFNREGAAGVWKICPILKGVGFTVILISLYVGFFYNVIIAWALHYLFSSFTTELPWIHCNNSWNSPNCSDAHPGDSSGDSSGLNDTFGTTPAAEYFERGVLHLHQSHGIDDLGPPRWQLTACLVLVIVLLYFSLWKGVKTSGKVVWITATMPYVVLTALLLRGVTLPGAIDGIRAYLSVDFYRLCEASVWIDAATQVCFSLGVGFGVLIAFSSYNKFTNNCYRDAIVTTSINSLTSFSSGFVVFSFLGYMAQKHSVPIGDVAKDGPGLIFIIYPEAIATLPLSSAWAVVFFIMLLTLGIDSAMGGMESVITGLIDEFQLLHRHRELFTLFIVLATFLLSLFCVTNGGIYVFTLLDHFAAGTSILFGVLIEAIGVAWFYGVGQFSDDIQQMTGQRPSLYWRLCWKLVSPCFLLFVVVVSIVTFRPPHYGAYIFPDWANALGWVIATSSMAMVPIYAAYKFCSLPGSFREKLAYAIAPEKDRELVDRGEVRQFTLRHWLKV
T3 sequence (P23977 whole entry): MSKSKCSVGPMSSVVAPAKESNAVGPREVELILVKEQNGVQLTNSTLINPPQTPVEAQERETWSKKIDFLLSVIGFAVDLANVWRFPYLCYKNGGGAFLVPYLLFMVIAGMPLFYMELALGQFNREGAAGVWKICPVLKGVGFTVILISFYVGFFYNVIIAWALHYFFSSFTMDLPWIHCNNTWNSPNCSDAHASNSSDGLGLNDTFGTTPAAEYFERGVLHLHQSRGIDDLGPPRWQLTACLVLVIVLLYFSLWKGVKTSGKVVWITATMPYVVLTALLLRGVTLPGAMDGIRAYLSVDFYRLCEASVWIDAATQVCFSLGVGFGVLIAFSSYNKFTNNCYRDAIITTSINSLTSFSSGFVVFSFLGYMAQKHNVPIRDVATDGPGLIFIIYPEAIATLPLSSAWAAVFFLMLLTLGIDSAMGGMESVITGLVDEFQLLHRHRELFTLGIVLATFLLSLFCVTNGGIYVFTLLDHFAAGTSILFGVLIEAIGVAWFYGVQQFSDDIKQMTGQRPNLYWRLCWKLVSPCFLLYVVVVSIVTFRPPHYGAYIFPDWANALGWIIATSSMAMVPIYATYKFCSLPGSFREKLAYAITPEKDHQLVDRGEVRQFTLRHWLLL
Chain of human norepinephrine transporter (hNET) (P23975 whole entry): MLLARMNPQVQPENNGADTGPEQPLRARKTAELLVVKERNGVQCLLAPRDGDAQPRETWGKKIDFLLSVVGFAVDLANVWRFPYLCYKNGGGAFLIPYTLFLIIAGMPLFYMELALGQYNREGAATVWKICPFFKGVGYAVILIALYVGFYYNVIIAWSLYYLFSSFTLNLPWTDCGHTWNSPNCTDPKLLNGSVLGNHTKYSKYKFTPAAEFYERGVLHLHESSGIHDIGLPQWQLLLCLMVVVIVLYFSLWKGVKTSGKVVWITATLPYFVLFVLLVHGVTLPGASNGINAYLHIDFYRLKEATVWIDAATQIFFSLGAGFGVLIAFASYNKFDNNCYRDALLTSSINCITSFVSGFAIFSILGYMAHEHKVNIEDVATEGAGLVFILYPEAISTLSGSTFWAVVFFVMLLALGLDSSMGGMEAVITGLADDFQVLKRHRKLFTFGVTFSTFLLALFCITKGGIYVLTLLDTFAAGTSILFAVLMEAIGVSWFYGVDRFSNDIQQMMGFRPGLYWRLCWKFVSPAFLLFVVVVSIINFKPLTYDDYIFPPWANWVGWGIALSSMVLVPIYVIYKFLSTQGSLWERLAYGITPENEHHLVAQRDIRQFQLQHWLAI
T4 sequence (P31645 whole entry): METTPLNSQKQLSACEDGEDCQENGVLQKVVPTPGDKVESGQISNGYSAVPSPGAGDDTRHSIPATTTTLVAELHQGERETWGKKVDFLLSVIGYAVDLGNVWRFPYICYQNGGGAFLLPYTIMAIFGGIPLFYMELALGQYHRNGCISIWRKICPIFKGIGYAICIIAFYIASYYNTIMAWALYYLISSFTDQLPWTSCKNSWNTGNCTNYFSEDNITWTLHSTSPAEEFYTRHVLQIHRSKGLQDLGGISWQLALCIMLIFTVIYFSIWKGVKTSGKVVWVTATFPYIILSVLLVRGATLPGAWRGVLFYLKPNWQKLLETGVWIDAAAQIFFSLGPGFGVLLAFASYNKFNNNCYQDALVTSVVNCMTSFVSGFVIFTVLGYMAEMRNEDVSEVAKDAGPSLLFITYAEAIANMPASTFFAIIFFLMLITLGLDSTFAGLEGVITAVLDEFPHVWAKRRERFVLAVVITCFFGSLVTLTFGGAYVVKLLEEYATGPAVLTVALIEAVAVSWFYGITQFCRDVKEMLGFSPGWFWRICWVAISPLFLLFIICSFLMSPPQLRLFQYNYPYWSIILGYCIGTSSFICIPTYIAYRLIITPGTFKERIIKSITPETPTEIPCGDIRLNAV
T1 sequence (P31652 whole entry): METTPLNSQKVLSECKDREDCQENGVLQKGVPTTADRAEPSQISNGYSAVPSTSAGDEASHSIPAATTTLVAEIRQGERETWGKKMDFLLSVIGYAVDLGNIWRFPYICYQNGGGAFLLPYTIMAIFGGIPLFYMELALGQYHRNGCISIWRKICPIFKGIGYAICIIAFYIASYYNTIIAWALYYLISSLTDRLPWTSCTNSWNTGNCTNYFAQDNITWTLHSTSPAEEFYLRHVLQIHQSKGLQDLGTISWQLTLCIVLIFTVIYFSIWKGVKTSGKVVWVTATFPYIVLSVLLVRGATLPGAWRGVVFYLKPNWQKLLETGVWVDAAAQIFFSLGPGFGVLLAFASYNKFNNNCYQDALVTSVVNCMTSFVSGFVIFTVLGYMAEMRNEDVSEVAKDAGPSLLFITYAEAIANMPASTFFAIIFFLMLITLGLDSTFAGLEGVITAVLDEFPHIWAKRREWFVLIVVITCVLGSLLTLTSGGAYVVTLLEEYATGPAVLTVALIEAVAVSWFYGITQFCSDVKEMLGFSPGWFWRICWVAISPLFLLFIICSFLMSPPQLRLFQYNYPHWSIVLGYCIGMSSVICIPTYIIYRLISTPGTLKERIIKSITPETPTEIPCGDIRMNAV

In the case of `COc1ccc([C@H](CN(C)C)[C@@H](O)C2CCCCC2)cc1.Cl` (racemic) [Compound E, (2RS,3SR)-3-Cyclohexyl-3-hydroxy-2-(4'-methoxyphenyl)-propyl-N,N-dimethylammonium chloride], the “5-HT (Rat) Reuptake Inhibition Potency” value [1] is reported as 0.62, the “NE (Rat) Reuptake Inhibition Potency” value [2, 9] is reported as 0.54 and the “DA (Rat) Reuptake Inhibition Potency” value [3] is reported as 0.10. The “Simultaneous Reuptake Inhibition Potency” value [4] was “no”, the “Simultaneous Reuptake Inhibition Potency (Rat)” value [4, 10] was “no” and the “hSert Binding Potency” value [5] was 70. For the same compound, the “hNet Binding Potency” value [6, 11] was 1.24, the “hDAT Binding Potency” value [7] was 0.69 and the “Simultaneous Transporter Binding Potency” value (hSERT, hNET, and hDAT) was “no”. For the same compound, the “Simultaneous Transporter Binding Potency (Human)” value (hSERT, hNET, and hDAT) was “no”.

With `CN(C)C[C@H](c1ccc2ccccc2c1)[C@H](O)C(C)(C)C` (relative stereo) [Compound A, (2RS,3RS)-3-Hydroxy-4,4-dimethyl-2-(2'-naphthyl)pentyl-N, N-dimethyl-ammonium chloride] the “NE (Rat) Reuptake Inhibition Potency” value [2, 9] was 12.0, the Ki ([2]; rat brain synaptosomes) was 10 ± 1 nM and the “DA (Rat) Reuptake Inhibition Potency” value [3] was 1.11. For the same compound, the Ki ([3]; rat brain synaptosomes) was 60 ± 10 nM, the “Simultaneous Reuptake Inhibition Potency” value [4] was “yes (A compound or drug is considered to possess simultaneous reuptake inhibition potency if each of the potency values is greater than 1.0.)” and the “simultaneous reuptake inhibition potency, in words” value [4] was “possess the quality of "simultaneous reuptake inhibition potency"”. The “Simultaneous Reuptake Inhibition Potency (Rat)” value [4, 10] was “yes (A compound or drug is considered to possess simultaneous reuptake inhibition potency if each of the potency values is greater than 1.0.)”, the “reuptake inhibition of all three neurotransmitters in both the rat and human models, in words” value [4] was “potently inhibit reuptake of all three neurotransmitters in both the rat and human models” and the “block uptake of all three neurotransmitters (5-HT, NE, and DA), Ki in words” value (“block uptake” for short) [4] was “nanomolar to 10 nanomolar range”. The “hSert Binding Potency” value [5, 12] was 1,750, the “hNet Binding Potency” value [6, 11] was 73.6 and the “hDAT Binding Potency” value [7] was 7.16. The “Simultaneous Transporter Binding Potency” value (hSERT, hNET, and hDAT) was “yes (A compound or drug is considered to possess "simultaneous transporter binding potency" if each of the potency values is greater than 7.0.)”, the “Simultaneous Transporter Binding Potency (Human)” value (hSERT, hNET, and hDAT) was “yes (A compound or drug is considered to possess "simultaneous transporter binding potency" if each of the potency values is greater than 7.0.)” and the “simultaneous transporter binding potency, in words” value (hSERT, hNET, and hDAT) was “qualify for simultaneous transporter binding potency”.

In the case of `CN(C)C[C@H](c1ccc2ccccc2c1)[C@H](O)c1ccccc1` (relative stereo) [Compound B, (2RS,3RS)-3-Hydroxy-2-(2'-naphthyl)-3-phenylpropyl-N, N-dimethylammonium chloride], the “Simultaneous Reuptake Inhibition Potency” value [4] is reported as “yes (A compound or drug is considered to possess simultaneous reuptake inhibition potency if each of the potency values is greater than 1.0.)”, the “simultaneous reuptake inhibition potency, in words” value [4] is reported as “possess the quality of "simultaneous reuptake inhibition potency"” and the “Simultaneous Reuptake Inhibition Potency (Rat)” value [4, 10] is reported as “yes (A compound or drug is considered to possess simultaneous reuptake inhibition potency if each of the potency values is greater than 1.0.)”. For the same compound, the “reuptake inhibition of all three neurotransmitters in both the rat and human models, in words” value [4] was “potently inhibit reuptake of all three neurotransmitters in both the rat and human models”, the “block uptake” value [4] was “nanomolar to 10 nanomolar range” and the “hSert Binding Potency” value [5] was 376. The “hDAT Binding Potency” value [7] was 34.3, the “Simultaneous Transporter Binding Potency” value (hSERT, hNET, and hDAT) was “yes (A compound or drug is considered to possess "simultaneous transporter binding potency" if each of the potency values is greater than 7.0.)” and the “Simultaneous Transporter Binding Potency (Human)” value (hSERT, hNET, and hDAT) was “yes (A compound or drug is considered to possess "simultaneous transporter binding potency" if each of the potency values is greater than 7.0.)”. For the same compound, the “simultaneous transporter binding potency, tightened criterion” value (hSERT, hNET, and hDAT; all potency values must be greater than 30) was “still qualifies” and the “simultaneous transporter binding potency, in words” value (hSERT, hNET, and hDAT) was “qualify for simultaneous transporter binding potency”.

With `CC(C)(C)[C@@H](O)[C@H](CN)c1ccc2ccccc2c1` (relative stereo) [Compound C, (2RS,3RS)-3-hydroxy-4,4-dimethyl-2-(2'-naphthyl)pentyl-ammonium chloride] the “DA (Rat) Reuptake Inhibition Potency” value [3] was 0.57, the “Simultaneous Reuptake Inhibition Potency” value [4] was “no” and the “Simultaneous Reuptake Inhibition Potency (Rat)” value [4, 10] was “no”. For the same compound, the “hSert Binding Potency” value [5, 12] was 347, the “hNet Binding Potency” value [6, 11] was 39.9 and the “hDAT Binding Potency” value [7] was 0.09. The “Simultaneous Transporter Binding Potency” value (hSERT, hNET, and hDAT) was “no” and the “Simultaneous Transporter Binding Potency (Human)” value (hSERT, hNET, and hDAT) was “no”.

With `NC[C@H](c1ccc2ccccc2c1)[C@H](O)c1ccccc1` (relative stereo) [Compound D, (2RS,3RS)-3-Hydroxy-2-(2'-naphthyl)-3-phenyl-propylammoni um chloride] the “5-HT (Rat) Reuptake Inhibition Potency” value [1] was 0.68, the “Simultaneous Reuptake Inhibition Potency” value [4] was “no” and the “simultaneous reuptake inhibition potency, in words” value [4] was “narrowly misses the criterion for simultaneous reuptake inhibition potency”. For the same compound, the “Simultaneous Reuptake Inhibition Potency (Rat)” value [4, 10] was “no”, the “block uptake” value [4] was “nanomolar to 10 nanomolar range” and the “hSert Binding Potency” value [5, 12] was 340. For the same compound, the “hDAT Binding Potency” value [7] was 16.8, the “Simultaneous Transporter Binding Potency” value (hSERT, hNET, and hDAT) was “yes (A compound or drug is considered to possess "simultaneous transporter binding potency" if each of the potency values is greater than 7.0.)” and the “Simultaneous Transporter Binding Potency (Human)” value (hSERT, hNET, and hDAT) was “yes (A compound or drug is considered to possess "simultaneous transporter binding potency" if each of the potency values is greater than 7.0.)”. For the same compound, the “simultaneous transporter binding potency, in words” value (hSERT, hNET, and hDAT) was “qualify for simultaneous transporter binding potency; also recorded: meets the criterion for simultaneous transporter binding potency”.

With `COc1ccc(C(CN(C)C)C2(O)CCCCC2)cc1` (centres unmarked) [Effexor ®, reference compound] the “DA (Rat) Reuptake Inhibition Potency” value [3] was 0.18, the “Simultaneous Reuptake Inhibition Potency” value [4] was “no” and the “Simultaneous Reuptake Inhibition Potency (Rat)” value [4] was “no”.

In the case of `Fc1ccc([C@@H]2CCNC[C@H]2COc2ccc3c(c2)OCO3)cc1` [Paxil ®, reference compound], the “NE (Rat) Reuptake Inhibition Potency” value [2] is reported as 3.61, the “Simultaneous Reuptake Inhibition Potency” value [4] is reported as “no” and the “Simultaneous Reuptake Inhibition Potency (Rat)” value [4] is reported as “no”. The “hNet Binding Potency” value [6] was 55 and the Ki [8] was 33 ± 2 nM.

For `CNCCC(Oc1ccc(C(F)(F)F)cc1)c1ccccc1` (centres unmarked) [Prozac ®, reference compound], the “DA (Rat) Reuptake Inhibition Potency” value [3] was 0.02, the “Simultaneous Reuptake Inhibition Potency” value [4] was “no” and the “Simultaneous Reuptake Inhibition Potency (Rat)” value [4] was “no”.

In the case of `CCc1nn(CCCN2CCN(c3cccc(Cl)c3)CC2)c(=O)n1CCOc1ccccc1` [Serzone ®, reference compound], the “DA (Rat) Reuptake Inhibition Potency” value [3] is reported as 0.03 and the “Simultaneous Reuptake Inhibition Potency” value ([4]; Table 2, each of the potency values greater than 1.0) is reported as “no”.

For `CNCC[C@@H](Oc1ccccc1C)c1ccccc1` [Tomoxetine, reference compound], the “Simultaneous Reuptake Inhibition Potency” value [4] was “no”.
